According to PMC6315005, “5F-Cumyl-PINACA in ‘e-liquids’ for electronic cigarettes: comprehensive characterization of a new type of synthetic cannabinoid in a trendy product including investigations on the in vitro and in vivo phase I metabolism of 5F-Cumyl-PINACA and its non-fluorinated analog Cumyl-PINACA” (Forensic Toxicology, 2018):
Like-named read-outs stand apart in the source and are kept apart here.

What was measured:
CB1 = target: T1, CB1 (Homo sapiens, UniProt P21554); assay: cAMP biosensor assay with CB1 as target (DiscoveRx); type: cell-based; conditions: for Curve top: agonist format, 20 µM forskolin; for Emax: read-out: Maximum response (compared to CP-55,940)
T1 construct: purchased DiscoveRx (Fremont, CA, USA)
T1 sequence (P21554 whole entry): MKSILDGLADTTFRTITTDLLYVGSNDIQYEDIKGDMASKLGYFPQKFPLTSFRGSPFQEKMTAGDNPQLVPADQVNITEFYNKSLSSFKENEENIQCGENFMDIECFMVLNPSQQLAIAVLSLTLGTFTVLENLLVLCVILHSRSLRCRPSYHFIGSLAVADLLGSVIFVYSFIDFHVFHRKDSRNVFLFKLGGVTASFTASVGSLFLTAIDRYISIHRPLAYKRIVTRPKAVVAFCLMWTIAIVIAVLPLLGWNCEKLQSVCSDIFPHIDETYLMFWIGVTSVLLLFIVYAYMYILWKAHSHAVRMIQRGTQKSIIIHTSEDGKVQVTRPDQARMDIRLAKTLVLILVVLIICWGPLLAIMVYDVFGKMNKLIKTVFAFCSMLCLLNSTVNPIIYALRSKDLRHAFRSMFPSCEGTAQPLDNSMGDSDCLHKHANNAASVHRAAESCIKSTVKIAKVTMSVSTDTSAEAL
Protocol: Each compound was tested in duplicates; to induce response, 20 µM forskolin was used.

CB2 receptors = test system: CB2 receptors; parameters: method as in PMID 28792725; conditions: mouse AtT-20 neuroblastoma cells, membrane potential; cited from earlier work
CB1 receptors = test system: CB1 receptors; parameters: method as in PMID 28792725; conditions: mouse AtT-20 neuroblastoma cells, membrane potential; cited from earlier work
CB1 receptor = test system: CB1 receptor; parameters: method as in PMID 29367862; conditions: [35S]GTPγS binding; cited from earlier work
CB2 receptor = test system: CB2 receptor; parameters: method as in PMID 29367862; conditions: [35S]GTPγS binding; cited from earlier work
[1] = test system: pooled human liver microsomes (pHLM); assay: Pooled human liver microsome assay (phase I metabolism); type: in vitro ADME; conditions: 60 min, 37 °C
Protocol: (§1) The LC–MS/MS system used for the analysis of the urine and the pHLM assay samples consisted of a Nexera X2 UHPLC (Shimadzu) coupled to a QTRAP™ 5500 triple quadrupole linear ion trap instrument (SCIEX) equipped with the TurboIonSpray® probe. […] The total flow rate was 0.4 mL/min. The autosampler and the column oven temperatures were set to 10 and 40 °C, respectively.
(§2) The MRM ion transitions of the parent compounds were optimized carefully in positive ionization mode (see Supplementary Tables S1 and S2). Enhanced product ion (EPI) scan experiments were performed using hypothetical masses of anticipated phase I metabolites, and the obtained spectra were compared to the EPI spectrum of the respective parent compound. In order to detect unexpected metabolites not covered by the EPI scan approach, precursor ion scan experiments for the characteristic fragment ion at m/z 145 and for the m/z of its modified analogs 161 (monohydroxylation), 177 (dihydroxylation) and 179 (dihydrodiol) were conducted. The relative abundances of the characterized metabolites in the urine samples obtained during the self-administration study were compared using an MRM method comprising the most abundant ion transitions of each metabolite (see Supplementary Fig. S1 and Table S3).
To investigate the tentative phase I metabolism of Cumyl-PINACA and 5F-Cumyl-PINACA (extracted from e-liquids), in vitro experiments with pHLM were performed in triplicates. A 0.5-µL volume of a substrate solution ([…] in acetonitrile) was added to 49.5 µL of a reaction mixture consisting of 2.5 µL pHLM, 2.5 µL NADPH regenerating solution A, 0.5 µL NADPH regenerating solution B, 5.0 µL SOD, 10 µL 0.5 M phosphate buffer, and 29 µL deionized water. Incubation was performed for 60 min at 37 °C. The reaction was terminated by the addition of ice-cold acetonitrile, and the supernatant was analyzed after 1:10 dilution with mobile phase A/B (50:50, v/v). Blank pHLM samples were processed in the same way serving as negative controls.

[2] = Authentic urine sample, phase I metabolites of 5F-Cumyl-PINACA (LC-MS/MS); type: in vivo, human; conditions: for Urine [Peak area]: 5F-Cumyl-PINACA consumption
Protocol: as §1, §2
The analysis of in vivo metabolism of 5F-Cumyl-PINACA in an authentic urine sample was conducted in accordance with the client’s inquest.
(§3) In order to cleave conjugates, 0.5 mL of an urine sample was incubated at 45 °C for 1 h after addition of 0.5 mL phosphate buffer (pH 6) and 30 µL β-glucuronidase. In a next step, 1.5 mL acetonitrile and 0.5 mL ammonium formate ([…]) were added. After shaking and centrifugation, 1 mL of the acetonitrile phase was transferred into a glass vial and evaporated to dryness under a gentle nitrogen stream at 40 °C. The residue was reconstituted in 200 µL mobile phase A/B (50:50, v/v) directly before LC–MS/MS analysis. Blank urine samples were prepared serving as negative controls.

[3] = Self-administration study, phase I metabolites of Cumyl-PINACA in urine (LC-MS/MS); type: in vivo, human; conditions: normalized to creatinine 100 mg/dL
[4] = as above; type: in vivo, human; conditions: for peak area in urine: normalized to creatinine 100 mg/dL
Protocol: as §1, §2
To investigate the in vivo phase I metabolism of Cumyl-PINACA, one of the authors (75 kg person) ingested 0.6 mg Cumyl-PINACA orally. In addition to blank samples taken prior to ingestion, serum and urine samples were collected repeatedly over periods of 17 and 31 h after ingestion, respectively. All samples were stored at − 20 °C until analysis. In Germany, approval by an ethics committee is not required for scientific self-experiments.
as §3

[5] = pHLM incubation of 5F-Cumyl-PINACA
[6] = pHLM incubation of Cumyl-PINACA
[7] = 37.2 h after 0.6 mg Cumyl-PINACA oral
[8] = 6 h after 0.6 mg Cumyl-PINACA oral
[9] = 16 h after 0.6 mg Cumyl-PINACA oral
[10] = 20.3 h after 0.6 mg Cumyl-PINACA oral
[11] = 22.3 h after 0.6 mg Cumyl-PINACA oral
[12] = 26.3 h after 0.6 mg Cumyl-PINACA oral
[13] = 29.3 h after 0.6 mg Cumyl-PINACA oral

`CCCCCn1nc(C(=O)NC(C(N)=O)C(C)C)c2ccccc21` (centres unmarked) [AB-PINACA] gave an EC50 (CB1) of 1740 pM, a Curve top (CB1) of 92.3 and an Emax (CB1; control ligand CP-55,940) of 95.3%.

In the case of `CC(C)(NC(=O)c1cn(CCCCCF)c2ccccc12)c1ccccc1` [5F-Cumyl-PICA, reference compound], the “potency of CB2 receptor activation compared to CP-55,940” value (CB2 receptors) is listed as “greater potency than CP-55,940”, the “potency of CB1 receptor activation compared to CP-55,940” value (CB1 receptors) is listed as “greater potency than CP-55,940” and the “CB1 activity compared to CP-55,940” value (CB1 receptor) is listed as “less activities as compared to CP-55,940”. For the same compound, the “CB2 activity compared to CP-55,940” value (CB2 receptor) was “less activities as compared to CP-55,940”.

In the case of `CC(C)(NC(=O)c1nn(CC2CCCCC2)c2ccccc12)c1ccccc1`, the “potency of CB2 receptor activation compared to CP-55,940” value (CB2 receptors) is listed as “greater potency than CP-55,940” and the “potency of CB1 receptor activation compared to CP-55,940” value (CB1 receptors) is listed as “greater potency than CP-55,940”.

Work on `CC(C)C(NC(=O)c1nn(Cc2ccc(F)cc2)c2ccccc12)C(N)=O` (centres unmarked) [AB-FUBINACA] yielded an EC50 (CB1) of 890 pM, a Curve top (CB1) of 97.4 and an Emax (CB1; control ligand CP-55,940) of 97.8%.

In the case of `CC(C)(NC(=O)c1nn(CCCCC(=O)O)c2ccccc12)c1ccccc1` [A07], the “pHLM [Peak area]” value [1, 5] is reported as 9.3E+06, the pHLM [Peak area] [1, 6] is reported as 2.9E+06 and the “Urine [Peak area]” value [2] is reported as 1.8E+05. The “peak area in urine” value [3, 7] was 1.7E+04, the “peak area in urine” value [4, 8] was 8.4E+04 and the “peak area in urine” value [4, 9] was 1.1E+05. The “peak area in urine” value [4, 10] was 5.2E+04, the “peak area in urine” value [4, 11] was 6.0E+04 and the “peak area in urine” value [4, 12] was 4.2E+04. The “peak area in urine” value [4, 13] was 2.1E+04.

With `CC(C)(NC(=O)c1nn(CCCCCO)c2ccccc12)c1ccccc1` [A08] the “pHLM [Peak area]” value [1, 5] was 6.0E+07, the pHLM [Peak area] [1, 6] was 7.3E+07 and the “abundance in authentic urine sample” value [2] was “high abundance”. The “Urine [Peak area]” value [2] was 2.2E+05, the “peak area in urine” value ([3]; 3.2 h after 0.6 mg Cumyl-PINACA oral) was 1.1E+06 and the “peak area in urine” value [3, 7] was 4.5E+05. For the same compound, the “peak area in urine” value ([3]; 39 h after 0.6 mg Cumyl-PINACA oral) was 2.9E+05, the “peak area in urine” value ([3]; 88.5 h after 0.6 mg Cumyl-PINACA oral) was 2.6E+04 and the “peak area in urine” value ([3]; 110.3 h after 0.6 mg Cumyl-PINACA oral) was 6.1E+04. The “peak area in urine” value ([3]; 134 h after 0.6 mg Cumyl-PINACA oral) was 2.7E+04, the “peak area in urine” value ([3]; 157.5 h after 0.6 mg Cumyl-PINACA oral) was 1.5E+04 and the “peak area in urine” value ([3]; 182.5 h after 0.6 mg Cumyl-PINACA oral) was 1.3E+04. The “peak area in urine” value ([3]; 205.5 h after 0.6 mg Cumyl-PINACA oral) was 1.1E+04, the “detectable in urine after self-administration” value ([4]; 0.6 mg Cumyl-PINACA oral) was “over 8 days” and the “relative abundance in urine samples” value ([4]; 0.6 mg Cumyl-PINACA oral) was “most abundant metabolite in all analyzed urine samples”. For the same compound, the “peak area in urine” value [4, 8] was 1.7E+07, the “peak area in urine” value [4, 9] was 4.1E+06 and the “peak area in urine” value [4, 10] was 1.4E+06. For the same compound, the “peak area in urine” value [4, 11] was 1.5E+06, the “peak area in urine” value [4, 12] was 7.7E+05 and the “peak area in urine” value [4, 13] was 5.7E+05.

For `CC(C)(NC(=O)c1nn(Cc2ccc(F)cc2)c2ccccc12)c1ccccc1` [Cumyl-FUBINACA], the “potency of CB2 receptor activation compared to CP-55,940” value (CB2 receptors) is given as “greater potency than CP-55,940” and the “potency of CB1 receptor activation compared to CP-55,940” value (CB1 receptors) is given as “greater potency than CP-55,940”.

Work on `O=C(c1cccc2ccccc12)c1nn(CCCCCF)c2ccccc12` [THJ-2201] yielded an EC50 (CB1) of 1680 pM, a Curve top (CB1) of 95.6 and an Emax (CB1; control ligand CP-55,940) of 91.9%.

In the case of `CCCCn1cc(C(=O)NC(C)(C)c2ccccc2)c2ccccc21` [Cumyl-BICA], the “potency of CB2 receptor activation compared to CP-55,940” value (CB2 receptors) is listed as “greater potency than CP-55,940” and the “potency of CB1 receptor activation compared to CP-55,940” value (CB1 receptors) is listed as “greater potency than CP-55,940”.

In the case of `CC(C)(NC(=O)c1cn(CC2CCCCC2)c2ccccc12)c1ccccc1` [Cumyl-CHMICA], the “potency of CB2 receptor activation compared to CP-55,940” value (CB2 receptors) is listed as “greater potency than CP-55,940” and the “potency of CB1 receptor activation compared to CP-55,940” value (CB1 receptors) is listed as “greater potency than CP-55,940”.

For `CCCCn1nc(C(=O)NC(C)(C)c2ccccc2)c2ccccc21` [Cumyl-BINACA], the “potency of CB2 receptor activation compared to CP-55,940” value (CB2 receptors) is given as “greater potency than CP-55,940” and the “potency of CB1 receptor activation compared to CP-55,940” value (CB1 receptors) is given as “greater potency than CP-55,940”.

`CCCCCn1c2ccccc2c2cc(C(=O)c3cccc4ccccc34)ccc21` [EG-018] gave a Curve top (CB1) of 74.3 and an Emax (CB1; control ligand CP-55,940) of 71.8%.

In the case of `CCCCCn1cc(C(=O)NC(C)(C)c2ccccc2)c2ccccc21` [Cumyl-PICA, reference compound], the “potency of CB2 receptor activation compared to CP-55,940” value (CB2 receptors) is given as “greater potency than CP-55,940”, the “potency of CB1 receptor activation compared to CP-55,940” value (CB1 receptors) is given as “greater potency than CP-55,940” and the “CB1 activity compared to CP-55,940” value (CB1 receptor) is given as “less activities as compared to CP-55,940”. For the same compound, the “CB2 activity compared to CP-55,940” value (CB2 receptor) was “less activities as compared to CP-55,940”.

Work on `COC(=O)C(NC(=O)c1cn(CC2CCCCC2)c2ccccc12)C(C)(C)C` (centres unmarked) [MDMB-CHMICA] yielded an EC50 (CB1) of 140 pM, a Curve top (CB1) of 94.8 and an Emax (CB1; control ligand CP-55,940) of 94.6%.

Compound `O=C(c1cccc2ccccc12)c1cn(CCCCCF)c2ccccc12` [AM-2201] has an EC50 (CB1) of 450 pM, a Curve top (CB1) of 103 and an Emax (CB1; control ligand CP-55,940) of 101%.

`CCCCCn1cc(C(=O)c2cccc3ccccc23)c2ccccc21` [JWH-018] gave an EC50 (CB1) of 1130 pM, a Curve top (CB1) of 97.6 and an Emax (CB1; control ligand CP-55,940) of 97.4%.

For `CC(C)(NC(=O)c1nn(CCCCCF)c2c1=CC(O)C(O)C=2)c1ccccc1` (centres unmarked) [B01], the “pHLM [Peak area]” value [1, 5] was 7.0E+06 and the “Urine [Peak area]” value [2] was 5.6E+04.

Compound `CC(C)C(NC(=O)c1nn(CC2CCCCC2)c2ccccc12)C(N)=O` (centres unmarked) [AB-[…]] has an EC50 (CB1) of 280 pM, a Curve top (CB1) of 94.8 and an Emax (CB1) of 94.8%.
